One assay addresses Cannabinoid receptor 1 (Rattus norvegicus, UniProt P20272). Description: Displacement of [3H]HU243 from rat brain membrane CB1 receptor assessed as inhibition constant incubated for 90 mins. The class given is cell membranes. Background: Displacement assays read how much labelled ligand stays bound in the presence of the test substance.
Assay [1] deals with Cannabinoid receptor 1 (Mus musculus) (UniProt P47746). Description: Antagonist activity at mouse brain membrane CB1 receptor assessed as stimulation of [35S]-GTPgammaS binding by measuring apparent dissociation constant incubated for 60 mins by liquid scintillation counting method. The format is cell membranes. Conditions: filed as antagonist. On the technique in general: GTPγS resists hydrolysis and so accumulates on activated G proteins.

The species entered for assay [2] is Rattus norvegicus. Description: Protection against LiCl-induced nausea in rat assessed as reduction in conditioned gaping. The class given is functional. Conditions: read-out: MED.
A further assay deals with MDA-MB-231. The experiment in a line: Inhibition of cell migration in human MDA-MB-231 cells measured upto 48 hrs by transwell chamber assay. The format is functional.
A further assay concerns Caco-2. Description: Cytotoxicity against human Caco-2 cells assessed as reduction of cell viability incubated for 24 hrs by MTT assay. The note with it: Caco-2, 24 h. The format is functional, cell-based. In general terms: Tetrazolium assays rely on reduction of a dye to a coloured formazan, in cell work by metabolically active cells.
The subject of the next assay is 4T1. The experiment in a line: Cytotoxicity against mouse 4T1 cells assessed as inhibition of cell proliferation by MTT assay. The format is functional, cell-based.
The test system of another assay is DU-145. Description: Cytotoxicity against human DU-145 cells assessed as inhibition of cell growth incubated for 72 hrs by MTT assay. The note with it: DU-145, 72 h. The class given is functional, cell-based.
A short description of assay [3]: Reduction of triglyceride level in mouse 3T3-L1 cells incubated for 3 days by AdipoRed staining based fluorescence analysis. Conditions: 3T3-L1, 72 h, time 3 day, read-out: MEC. The format is functional.
Assay [4] is described as follows: Induction of apoptosis in gamma-irradiation induced human U87 cells by PI staining based flow cytometric analysis. The class given is functional, U-87MG ATCC. The note with it: U-87 MG, light or radiation study, read-out: MEC.
The test system of assay [5] is Rattus norvegicus. The experiment in a line: Protection against LiCl-induced nausea in ip dosed rat assessed as reduction in conditioned gaping. The class given is functional.

Four molecules from ChEMBL document CHEMBL5244233 (Eur J Med Chem, 2020) can be followed below.

One may read the pKi as the Ki on a negative log10 scale, so that one unit is a factor of ten. The Kb is the equilibrium dissociation constant of an antagonist, usually derived from a functional assay. The term MIC denotes the lowest concentration found to suppress growth. A lower MIC goes with inhibition by little substance. As a reminder, the pIC50 is the negative decadic logarithm of the IC50, by convention in mol/L.

Molecules are shown by their SMILES. pIC50, pKi: −log10 of the molar value.

Sequence of Cannabinoid receptor 1 (P20272 whole entry): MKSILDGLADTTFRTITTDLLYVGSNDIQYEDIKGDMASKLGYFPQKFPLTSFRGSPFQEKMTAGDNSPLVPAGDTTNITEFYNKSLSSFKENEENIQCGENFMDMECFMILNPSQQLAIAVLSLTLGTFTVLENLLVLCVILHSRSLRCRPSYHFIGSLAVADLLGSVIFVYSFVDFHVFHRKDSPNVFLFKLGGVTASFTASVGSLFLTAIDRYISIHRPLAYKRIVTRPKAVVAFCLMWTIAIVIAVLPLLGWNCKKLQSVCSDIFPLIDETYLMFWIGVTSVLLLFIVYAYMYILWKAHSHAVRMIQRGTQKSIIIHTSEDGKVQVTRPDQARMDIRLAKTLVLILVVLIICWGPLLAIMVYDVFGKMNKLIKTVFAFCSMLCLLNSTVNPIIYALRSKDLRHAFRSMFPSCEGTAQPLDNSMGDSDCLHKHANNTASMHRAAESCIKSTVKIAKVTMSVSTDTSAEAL
Sequence of Cannabinoid receptor 1 (Mus musculus) (P47746 whole entry): as the sequence (P20272 whole entry) above, with E95D counted along it

In the case of `C=C(C)[C@@H]1CCC(C)C[C@H]1c1c(O)cc(CCCCC)cc1O` (stereo partly specified), the pKi on Cannabinoid receptor 1 was 6.84.

Take `C=C(C)[C@@H]1CCC(C)=C[C@H]1c1c(O)cc(CCCCC)c(C(=O)O)c1O` [CANNABIDIOLIC ACID]: the Kb in assay [1] worked out at 1800 nM. For the same molecule, the minimal effective dose in the assay filed under Rattus norvegicus [2] was determined as 2.5 µg/kg. The MIC against MDA-MB-231 is no more than 5 µM.

With `C=C(C)[C@@H]1CCC(C)=C[C@H]1c1c(O)cc(CCCCC)cc1O` [CANNABIDIOL], the results for the pIC50 in the assay on Caco-2, in the assay on 4T1 and in the assay on DU-145 were 5.43, 5.74 and 5.27, respectively. Further, the minimal effective concentration in assay [3] and in assay [4] was no more than 5 µM throughout.

For `C=C(C)[C@@H]1CCC(C)=C[C@H]1c1c(O)cc(CCC)cc1O` [CANNABIDIVARIN], in the assay with Rattus norvegicus [5], the MED worked out at 0.2 g/kg. In addition, the negative-log IC50 (pIC50) in the assay on Caco-2 is 5.00.
